“Also recorded” adds a separate entry of the source.
What was measured:
[1] = Stability of Olanzapine Form I at stressed conditions (40° C./75% RH), HPLC purity, total impurity and colour (UV absorbance at 430 nm); format: physicochemical; conditions: for Absorbance at 430 nm Log I/Io: colour; for Stability under stressed conditions: stressed conditions (40° C.)
Method: The colour of Olanzapine is determined by following method:
Olanzapine 50 mg was dissolved in 50 ml 0.1 N HCl in methanol, which was diluted to prepare 100 μgm/ml, 200 μgm/ml, 500 μgm/ml of Olanzapine solution. […] Calibration curve was plotted between absorbance and concentration.
% of Colour=Amount of colour from calibration curve×100/Weight of sample taken.

[2] = cited from earlier work
[3] = Stability of Olanzapine Form I at stressed conditions (40° C./75% RH), HPLC purity, total impurity and colour (UV absorbance at 430 nm); format: physicochemical

Cc1cc2c(s1)Nc1ccccc1N=C2N1CCN(C)CC1 [Olanzapine Form I, 2-methyl-4-(4-methyl-1-piperazinyl)-10H-thieno[2,3-b][1,5]benzodiazepine]
Absorbance at 430 nm Log I/Io ([1]; 60 DAYS/40° C./75% RH): 0.407 | Absorbance at 430 nm Log I/Io ([1]; 120 DAYS/40° C./75% RH): 0.4034 | Absorbance at 430 nm Log I/Io ([1]; 180 DAYS/40° C./75% RH): 0.4026 | Absorbance at 430 nm Log I/Io ([1]; Initial): 0.4 | Colour stability upon storage ([1]; high temperature (40° C.), high moisture or stress conditions): colour stable; also recorded: stable colour | Stability under stressed conditions ([1]; listed as Form I): highly stable | Stability under stressed conditions ([1]; listed as olanzapine): high stability | Stability / colour on standing ([2]; Form I crystallized from acetonitrile per U.S. Pat. No. 5,229,382, on standing): metastable and changes its color on standing | Stability at room temperature ([2]; Form I prepared from alcoholic solvent, U.S. Pat. No. 6,906,062, room temperature): stable form at room temperature | Impurity Profile Chromatographic purity % ([3]; 30 DAYS/40° C./75% RH): 99.94% | Impurity Profile Total Imp. % age ([3]; 30 DAYS/40° C./75% RH): 0.06 % age | Absorbance at 430 nm Log I/Io ([3]; 30 DAYS/40° C./75% RH, colour): 0.402 | Impurity Profile Chromatographic purity % ([3]; 60 DAYS/40° C./75% RH): 99.96% | Impurity Profile Total Imp. % age ([3]; 60 DAYS/40° C./75% RH): 0.04 % age | Impurity Profile Chromatographic purity % ([3]; 120 DAYS/40° C./75% RH): 99.95% | Impurity Profile Total Imp. % age ([3]; 120 DAYS/40° C./75% RH): 0.05 % age | Impurity Profile Chromatographic purity % ([3]; 180 DAYS/40° C./75% RH): 99.93% | Impurity Profile Total Imp. % age ([3]; 180 DAYS/40° C./75% RH): 0.07 % age | Impurity Profile Chromatographic purity % ([3]; Initial): 99.97% | Impurity Profile Total Imp. % age ([3]; Initial): 0.03 % age
